Patent publication US20160263189A1, “TREATMENT OF A NEURODEGENERATIVE DISEASE OR DISORDER” (ACADIA Pharmaceuticals Inc., priority 2013, published 2016)

Key:
[1] = test system: primary cultures of dopaminergic neurons previously exposed to alpha-synuclein (α-syn); test: TH positive neurons in primary cultures of dopaminergic neurons exposed to alpha-synuclein; format: cell-based, rat; details: for increase in TH positive neurons over the α-synuclein alone condition: α-synuclein peptide 250 nM, 96 h; for survival of TH positive neurons compared to the control condition: neurons treated with alpha-synuclein
Experimental: Cultured neurons were treated as described above. On day 7, the media was removed, and fresh media with the α-synuclein peptide (250 nM) was added. On day 8, the media was removed, and fresh media with the α-synuclein peptide (250 nM) and the indicated drug treatments was added.
Cultured neurons were treated with alpha-synuclein as described above.

[2] = test system: Ret; test: Ret immunolabeling in the SNc of 6OHDA-lesioned rats; format: in vivo, Sprague-Dawley rats; details: 1 mg/kg/day subcutaneously for 28 days starting 3 days after bilateral 6OHDA infusion into the SNc
Description: Sprague-Dawley rats received saline infusions (denoted sham) or bilateral infusions of 6OHDA into the SNc (denoted lesion) as described (McFarland et al., 2013). […] A), RET positive cells expressed as % of sham; B), sham; C), vehicle treated lesioned animals; D) bexarotene treated lesioned animals. Shown are representative images of substantia nigral tissue immunolabeled for Ret.

[3] = test system: primary cultures of dopaminergic neurons previously exposed to MPP+; test: TH positive neurons in primary cultures of dopaminergic neurons after MPP+ injury

| Molecule | increase in TH positive neurons over the α-synuclein alone condition ([1]; bexarotene alone 10 nM) | survival of TH positive neurons compared to the control condition ([1]; bexarotene alone 100 nM) | RET expression relative to sham animals [2] | RET positive cells in the SNc (expressed as % of sham) ([2]; vs Lesion/Veh, p<0.05) | increase in TH positive neurons over the MPP alone condition ([3]; 5 nM bexarotene alone) | % of TH positive cells compared to cells treated with MPP+ alone ([3]; 0.3, 1 or 3 nM bexarotene alone, 24 h MPP+ injury (4 μM), drugs for 48 h) | increase in TH positive neurons over the α-synuclein alone condition ([1]; GDNF alone 12.5 ng/ml) | survival of TH positive neurons compared to the control condition ([1]; GDNF alone 100 ng/ml) | increase in TH positive neurons over the MPP alone condition ([3]; 2 ng/ml GDNF alone) |
| --- | --- | --- | --- | --- | --- | --- | --- | --- | --- |
| C=C(c1ccc(C(=O)O)cc1)c1cc2c(cc1C)C(C)(C)CCC2(C)C [bexarotene, Bexarotene] | 8% | 88% | increased RET expression above the levels in the sham animals | reversed the loss of RET positive cells | 9% | not able to significantly increase | – | – | – |
| GDNF: glial-cell-line-derived neurotrophic factor, a trophic factor (protein, UniProt P39905 78-211, looked up) Glial cell line-derived …: SPDKQMAVLPRRERNRQAAAANPENSRGKGRRGQRGKNRGCVLTAIHLNVTDLGLGYETKEELIFRYCSGSCDAAETTYDKILKNLSRNRRLVSDKVGQACCRPIAFDDDLSFLDDNLVYHILRKHSAKRCGCI | – | – | – | – | – | – | 8% | 96% | 3% |
